Reference: PMC10477886, “Adamantaniline Derivatives Target ATP5B to Inhibit Translation of Hypoxia Inducible Factor‐1α” (Advanced Science, 2023)

System: HIF‐1α transcriptional activity
Assay: dual‐luciferase assay (HRE‐Firefly Luciferase / renilla) of HIF‐1α transcriptional activity in HEK293T cells
Type: cell-based, human
Conditions: Homo sapiens, HEK-293T, mean ± s.d. (n = 3); for inhibition at 10 µM: incubation 24 h, HEK293T, read-out: Inhibition rate [%] @ 10 µM; for IC50: HEK293T dual‐luciferase
Excerpt: To screen HIF‐1α inhibitors in a robust cell‐based assay, we optimized the dual‐luciferase assay with pLenti‐HIF‐1αP2A (P402A and P564A) instead of pLenti‐HIF‐1α in order to ensure the expression of HIF‐1α under normoxia condition. In the cell‐based assay, HEK293T cells were co‐transfected with pLenti‐HIF‐1αP2A, renilla, and hypoxia‐responsive element (HRE)‐Firefly Luciferase (Figure S1, Supporting Information). […] Three compounds were selected as the positive controls including two inhibitors (PX‐478 2HCl and BAY 87‐2243) and an activator (BAY 85‐3934) in the screening assay.
HEK293T cells were stably transfected with reporter plasmids pGMLV‐HRE‐LUC‐puromycin, pMSCV‐renilla‐hygromycin, and pLenti‐HIF‐1αP2A‐neomycin. Stable cell line constructed above, 293‐HIF‐1αP2A‐HRE‐Fluc‐Rluc, were seeded in 384‐well plates and cultured in DMEM with 10% FBS. The following day, the cells were pretreated with indicated chemical compounds from the National Compound Library of the Shanghai Institute of Materia Medica, Chinese Academy of Sciences by Mosquito HTS. The plate was then placed in an incubator chamber and incubated at 37 °C for 24 h. The ratio of firefly/renilla luciferase activity was determined by using the Envision (PerkinElmer).
Stable cell line 293‐HRE‐Fluc‐Rluc expressed luciferase and renilla or HEK293T cells transfected with indicated plasmids (pGL3‐HRE‐luciferase and pSV40‐renilla) were seeded in a 96‐well plate. The cells were co‐incubated with indicated compounds for 24 h and luciferase activities were detected in Microplate Reader (BioTek SYNEGRY H1) using the Dual Luciferase Reporter Assay System Kit (Promega, USA E1910) according to the manufacturer's instruction. The relative Luc activity was normalized by renilla activity. Three independent experiments were performed, and the calculated means and SDs are presented.

| IC50 | Compound | inhibition at 10 µM |
| --- | --- | --- |
| – | CCc1cc(C23CC4CC(CC(C4)C2)C3)cc(CC)c1NC(=O)c1cccc(Cl)c1 [3‐2i, N‐(4‐((3r,5r,7r)‐Adamantan‐1‐yl)−2,6‐Diethylphenyl)−3‐Chlorobenzamide] | 35.1 ± 5.7% |
| – | CCCCCCOc1ccccc1C(=O)Nc1ccc(C23CC4CC(CC(C4)C2)C3)cc1 [1‐3ai, N‐(4‐((3r,5r,7r)‐Adamantan‐1‐yl)Phenyl)−2‐(Hexyloxy)Benzamide] | 28.2 ± 5.5% |
| – | CC(=O)Nc1ccc(C(=O)Nc2ccc(C34CC5CC(C)(CC(C)(C5)C3)C4)cc2)cc1 [3‐2d] | 31.4 ± 4.5% |
| – | CC(C)c1cc(C23CC4CC(CC(C4)C2)C3)cc(C(C)C)c1NC(=O)c1cccc(Cl)c1 [3‐2b, N‐(4‐((3r,5r,7r)‐Adamantan‐1‐yl)−2,6‐Diisopropylphenyl)−3‐Chlorobenzamide] | 27 ± 4.9% |
| – | COc1ccnc(C(=O)Nc2ccc(C34CC5CC(CC(C5)C3)C4)cc2)c1 [1‐4g, N‐(4‐((3r,5r,7r)‐Adamantan‐1‐yl)Phenyl)−4‐Methoxypicolinamide] | 68.5 ± 0.4% |
| – | Cc1cnc(C(=O)Nc2ccc(C34CC5CC(CC(C5)C3)C4)cc2)cn1 [1‐4e] | 36.3 ± 4.2% |
| 1300 ± 200 nM | CN1CCN(CCCCC(=O)Nc2cccc(C(=O)Nc3ccc(C45CC6CC(CC(C6)C4)C5)cc3)c2)CC1 [1‐3am, N‐(4‐((1s,3s)‐Adamantan‐1‐yl)Phenyl)−3‐(5‐(4‐Methylpiperazin‐1‐yl)Pentanamido)Benzamide] | 86.4 ± 0.9% |
| – | O=C(Nc1ccc(C23CC4CC(CC(C4)C2)C3)cc1)c1ccncc1 [1‐4c, N‐(4‐((3r,5r,7r)‐Adamantan‐1‐yl)Phenyl)Isonicotinamide] | 41.6 ± 2% |
| – | O=C(Nc1ccc(C23CC4CC(CC(C4)C2)C3)cc1)c1ccccc1C(F)(F)F [1‐3ad, N‐(4‐((3r,5r,7r)‐Adamantan‐1‐yl)Phenyl)−2‐(Trifluoromethyl)Benzamide] | 31.3 ± 3.3% |
| – | O=C(Nc1ccc(C23CC4CC(CC(C4)C2)C3)cc1)c1ccc(C(F)(F)F)cc1 [1‐3af, N‐(4‐((3r,5r,7r)‐Adamantan‐1‐yl)Phenyl)−4‐(Trifluoromethyl)Benzamide] | 37.9 ± 0.7% |
| 520 ± 20 nM | O=C(Nc1ccc(C23CC4CC(CC(C4)C2)C3)cc1)c1cncs1 [1‐4i, N‐(4‐((3r,5r,7r)‐Adamantan‐1‐yl)Phenyl)thiazole‐5‐Carboxamide] | 97.1 ± 0.4% |
| 370 ± 40 nM | O=C(CCCCN1CCOCC1)Nc1cccc(C(=O)Nc2ccc(C34CC5CC(CC(C5)C3)C4)cc2)c1 [1‐3an, N‐(4‐((1s,3s)‐Adamantan‐1‐yl)Phenyl)−3‐(5‐Morpholinopentanamido)Benzamide] | 93.4 ± 0.5% |
| 820 ± 130 nM | COc1cccc(C(=O)Nc2ccc(C34CC5CC(CC(C5)C3)C4)cc2)c1 [1‐3h, N‐(4‐((3r,5r,7r)‐Adamantan‐1‐yl)Phenyl)−3‐Methoxybenzamide] | 92.1 ± 0.6% |
| 3500 ± 1000 nM | O=C(CC12CC3CC(CC(C3)C1)C2)Nc1ccc(NC(=O)c2ccccn2)cc1 [2‐3b, N‐(4‐(2‐((3r,5r,7r)‐Adamantan‐1‐yl)Acetamido)Phenyl)Picolinamide] | 68 ± 4.7% |
| 1000 ± 100 nM | O=C(CCCCBr)Nc1cccc(C(=O)Nc2ccc(C34CC5CC(CC(C5)C3)C4)cc2)c1 [1‐3al, N‐(4‐((1s,3s)‐Adamantan‐1‐yl)Phenyl)−3‐(5‐Bromopentanamido)Benzamide] | 89.5 ± 1.1% |
| – | CC12CC3CC(C)(C1)CC(c1cnc(NC(=O)c4cccc(Cl)c4)nc1)(C3)C2 [3‐2g, 3‐Chloro‐N‐(5‐((1r,3R,5S,7r)−3,5‐Dimethyladamantan‐1‐yl)Pyrimidin‐2‐yl)Benzamide] | 27.8 ± 8.8% |
| – | Cc1cc(C23CC4CC(C)(CC(C)(C4)C2)C3)cc(C)c1NC(=O)c1cccc(Cl)c1 [3‐2f, 3‐Chloro‐N‐(4‐((1r,3R,5S,7r)−3,5‐Dimethyladamantan‐1‐yl)−2,6‐Dimethylphenyl)Benzamide] | 65.7 ± 6.7% |
| – | N#Cc1ccc(C(=O)Nc2ccc(C34CC5CC(CC(C5)C3)C4)cc2)cc1 [1‐3l, N‐(4‐((3r,5r,7r)‐Adamantan‐1‐yl)Phenyl)−4‐Cyanobenzamide] | 61.2 ± 5.5% |
| 53 ± 8 nM | O=C(Nc1ccc(C23CC4CC(CC(C4)C2)C3)cc1)c1ccc(O)cc1 [1‐3o, N‐(4‐((3r,5r,7r)‐Adamantan‐1‐yl)Phenyl)−4‐Hydroxybenzamide] | 96.4 ± 0.2% |
| – | COc1ccc(C(=O)Nc2ccc(C34CC5CC(CC(C5)C3)C4)cc2)nc1 [1‐4f] | 36.1 ± 5.6% |

| IC50 | Compound | inhibition at 10 µM |
| --- | --- | --- |
| 940 ± 20 nM | CN(C)CCCC(=O)Nc1ccc(C(=O)Nc2ccc(C34CC5CC(CC(C5)C3)C4)cc2)cc1 [1‐3at, N‐(4‐((3r,5r,7r)‐Adamantan‐1‐yl)Phenyl)−4‐(4‐(Dimethylamino)Butanamido)Benzamide] | 90 ± 1.7% |
| – | O=C(Nc1ccc(C23CC4CC(CC(C4)C2)C3)cc1)c1ccccc1Cl [1‐3b, N‐(4‐((3r,5r,7r)‐Adamantan‐1‐yl)Phenyl)−2‐Chlorobenzamide] | 58.4 ± 1.5% |
| 230 ± 30 nM | Nc1cccc(C(=O)Nc2ccc(C34CC5CC(CC(C5)C3)C4)cc2)c1 [1‐3t, N‐(4‐((3r,5r,7r)‐Adamantan‐1‐yl)Phenyl)−3‐Aminobenzamide] | 97.3 ± 0.4% |
| 280 ± 60 nM | O=C(Nc1ccc(C23CC4CC(CC(C4)C2)C3)cc1)c1ccncn1 [1‐4d, N‐(4‐((3r,5r,7r)‐Adamantan‐1‐yl)Phenyl)Pyrimidine‐4‐Carboxamide] | 97.1 ± 0.4% |
| – | O=C(Nc1ncc(C23CC4CC(CC(C4)C2)C3)cn1)c1cccc(Cl)c1 [3‐2c, N‐(5‐((3r,5r,7r)‐Adamantan‐1‐yl)Pyrimidin‐2‐yl)−3‐Chlorobenzamide] | 65.3 ± 4.3% |
| 2500 ± 700 nM | C[N+](C)(C)CCCC(=O)Nc1cccc(C(=O)Nc2ccc(C34CC5CC(CC(C5)C3)C4)cc2)c1 [1‐3as, 4‐((3‐((4‐((3r,5r,7r)‐Adamantan‐1‐yl)Phenyl)Carbamoyl)Phenyl)Amino)‐N,N,N‐Trimethyl‐4‐Oxobutan‐1‐Aminium] | 76.4 ± 1.3% |
| – | O=C(CCCCN1CCOCC1)Nc1ccc(C(=O)Nc2ccc(C34CC5CC(CC(C5)C3)C4)cc2)cc1 [1‐3aq, N‐(4‐((3r,5r,7r)‐Adamantan‐1‐yl)Phenyl)−4‐(5‐Morpholinopentanamido)Benzamide] | 69.5 ± 0.5% |
| – | CCCCCCCCc1ccc(C(=O)Nc2ccc(C34CC5CC(CC(C5)C3)C4)cc2)cc1 [1‐3ak, N‐(4‐((1s,3s)‐Adamantan‐1‐yl)Phenyl)−4‐Octylbenzamide] | 32.5 ± 7.2% |
| – | CCc1cc(C23CC4CC(C)(CC(C)(C4)C2)C3)cc(CC)c1NC(=O)c1cccc(Cl)c1 [3‐2h, 3‐Chloro‐N‐(4‐((1r,3R,5S,7r)−3,5‐Dimethyladamantan‐1‐yl)−2,6‐Diethylphenyl)Benzamide] | 30 ± 8.4% |
| 110 ± 20 nM | Nc1cccc(C(=O)Nc2ccc(C34CC5CC(CC(C5)C3)C4)cc2)n1 [1‐4q, N‐(4‐((3r,5r,7r)‐Adamantan‐1‐yl)Phenyl)−6‐Aminopicolinamide] | 98.6 ± 0.1% |
| 3500 ± 200 nM | CC(C)(C)OC(=O)Nc1cccc(C(=O)Nc2ccc(C34CC5CC(CC(C5)C3)C4)cc2)c1 [1‐3q, Tert‐Butyl (3‐((4‐((3r,5r,7r)‐Adamantan‐1‐yl)Phenyl)Carbamoyl)Phenyl)Carbamate] | 75.5 ± 0.3% |
| – | COc1ccccc1C(=O)Nc1ccc(C23CC4CC(CC(C4)C2)C3)cc1 [1‐3g, N‐(4‐((3r,5r,7r)‐Adamantan‐1‐yl)Phenyl)−2‐Methoxybenzamide] | 40.2 ± 2.1% |
| 720 ± 20 nM | O=C(Nc1ccc(C23CC4CC(CC(C4)C2)C3)cc1)c1cc(Cl)ccn1 [1‐4h, N‐(4‐((3r,5r,7r)‐Adamantan‐1‐yl)Phenyl)−4‐Chloropicolinamide] | 91.5 ± 1.3% |
| 2100 ± 400 nM | CN(C)CCCC(=O)Nc1cccc(C(=O)Nc2ccc(C34CC5CC(CC(C5)C3)C4)cc2)c1 [1‐3ar, N‐(4‐((3r,5r,7r)‐Adamantan‐1‐yl)Phenyl)−3‐(4‐(Dimethylamino)Butanamido)Benzamide] | 79.4 ± 1.8% |
| – | CC12CC3CC(C)(C1)CC(c1ccc(NC(=O)c4cccc(Cl)c4)cc1)(C3)C2 [3‐2e, 3‐Chloro‐N‐(4‐((1r,3R,5S,7r)−3,5‐Dimethyladamantan‐1‐yl)Phenyl)Benzamide] | 27.1 ± 1% |
| 1900 ± 200 nM | CC(=O)Nc1cccc(C(=O)Nc2ccc(C34CC5CC(CC(C5)C3)C4)cc2)c1 [1‐3w, 3‐Acetamido‐N‐(4‐((3r,5r,7r)‐Adamantan‐1‐yl)Phenyl)Benzamide] | 77.4 ± 2.3% |
| – | Cn1cccc1C(=O)Nc1ccc(C23CC4CC(CC(C4)C2)C3)cc1 [1‐4n, N‐(4‐((3r,5r,7r)‐Adamantan‐1‐yl)Phenyl)−1‐Methyl‐1H‐Pyrrole‐2‐Carboxamide] | 57.5 ± 2% |
| 1600 ± 300 nM | COc1ccc(C(=O)Nc2ccc(C34CC5CC(CC(C5)C3)C4)cc2)cc1 [1‐3i, N‐(4‐((3r,5r,7r)‐Adamantan‐1‐yl)Phenyl)−4‐Methoxybenzamide] | 86 ± 1.4% |
| – | N#Cc1ccccc1C(=O)Nc1ccc(C23CC4CC(CC(C4)C2)C3)cc1 [1‐3j, N‐(4‐((3r,5r,7r)‐Adamantan‐1‐yl)Phenyl)−2‐Cyanobenzamide] | 41.8 ± 3.4% |
